experiment: Ozone resistance of printed matter; format: physicochemical; settings: ink containing the dye; printed matter exposed to 3 ppm ozone for 2 hours
Excerpt: (§1) There were mixed together 8 parts by weight of a coloring material-containing emulsion obtained in the above item (2) or a 30% aqueous solution of a dye obtained in any one of Reference Examples 1 to 5, 10 parts by weight of trimethylglycine, 5 parts by weight of urea, 1 part by weight of sodium 2-ethylhexylsulfosuccinate and 76 parts by weight of purified water, to give an ink.
(§2) An inkjet printer cartridge (commercially available from CANON INC. under the trade name of BCI-21e) was charged with an ink, and the inkjet printer cartridge was loaded on a bubble jet printer (commercially available from CANON INC. under the model number of BJC430J). Printing was carried out on plain paper (commercially available from CANON INC. under the trade name of The Plain Paper for Inkjet Printing PB Paper) and on high-resolution coated paper (commercially available from CANON INC. under the trade name of (The High Resolution Coated Paper HR-101), and sufficiently dried. Thereafter, the following physical properties of the printed paper were evaluated. The results are shown in Table 2.
(4) Ozone Resistance
A printed matter on a paper sheet for plain paper copy was exposed in a gas stream having an ozone concentration of 3 ppm for 2 hours, and the color tone (L*a*b*) before and after exposure was determined by using a colorinmeter [commercially available from Nippon Denshoku Kogyo Kabushiki Kaisha under the trade name of SE2000], and indicated by ΔE.

| Compound | Ozone Resistance (ΔE) |
| --- | --- |
| C.I. Acid Red 289 [Dye a] | 4 |
| C.I. Acid Yellow 17 [Dye c] | 3 |
| C.I. Acid Yellow 23 [Dye b] | 5 |
| C.I. Direct Yellow 86 [Dye d] | 10 |

Further lines, results first:

| Ozone Resistance (ΔE) | Compound |
| --- | --- |
| 0 | CCCCN(CCCC)C(=O)C1=NN(c2ccc(S(=O)(=O)N(CCCC)CCCC)cc2)C(=O)C1N=Nc1ccc(S(=O)(=O)N(CCCC)CCCC)cc1 (centres unmarked) [Oil-Soluble Dye IB] |
| 0 | CCCCCCN(CCCCCC)S(=O)(=O)c1ccc(N=NC2C(=O)N(c3cc(Cl)c(S(=O)(=O)N(CCCCCC)CCCCCC)cc3Cl)N=C2C)cc1 (centres unmarked) [Oil-Soluble Dye IC] |
| 0 | CCCCN(CCCC)S(=O)(=O)c1cccc(N=Nc2ccc(NC(=O)Nc3ccc(N=Nc4cccc(S(=O)(=O)N(CCCC)CCCC)c4)cc3OC)c(OC)c2)c1 [Oil-Soluble Dye ID] |
| 0 | C.I. Direct Yellow 132 [Dye e] |
| 8 | C.I. Solvent Red 49 [Dye l] |

experiment: Solvent solubility of dye; format: physicochemical; parameters: key: ◯: Dye not being dissolved; x: Dye being dissolved; settings: 20 parts by weight dye in 100 parts by weight 2-butanone, 20° C.
Method: Twenty parts by weight of a dye was added to 100 parts by weight of a solvent shown in Table 1, and whether or not the dye is dissolved in the solvent at 20° C. was observed. The evaluation was made on the basis of the following evaluation criteria:
x: Dye not being dissolved

| Solvent Solubility 2-Butanone | Compound |
| --- | --- |
| ◯ | C.I. Solvent Red 49 [Dye l] |

same assay, conditions: 20 parts by weight dye in 100 parts by weight ethanol, 20° C.

| Solvent Solubility Ethanol | Compound |
| --- | --- |
| ◯ | C.I. Solvent Red 49 [Dye l] |

same assay, conditions: 20 parts by weight dye in 100 parts by weight tetrahydrofuran, 20° C.

| Solvent Solubility Tetrahydrofuran | Compound |
| --- | --- |
| ◯ | C.I. Solvent Red 49 [Dye l] |

same assay, conditions: 20 parts by weight dye in 100 parts by weight toluene, 20° C.

| Solvent Solubility Toluene | Compound |
| --- | --- |
| ◯ | C.I. Solvent Red 49 [Dye l] |

experiment: Light fastness of printed matter (OD residual ratio); format: physicochemical; settings: ink containing the dye; printed matter irradiated at 10000 kJ/m^2, xenon fade meter
Excerpt: as §1, §2
(3) Light Fastness
A printed matter of the PB Paper (commercially available from CANON INC.) was irradiated at 10000 kJ/m^2 with a xenon fade meter (commercially available from Suga Shikenki K.K. under the trade name of Low-temperature cycle-xenon-long life-fade meter). The optical density (OD) of the same site before and after irradiation was determined by using the same optical density analyzer as above. Its OD residual ratio was obtained in accordance with the following equation: [formula]

| Compound | Light Fastness [OD Residual Ratio (%)] |
| --- | --- |
| C.I. Acid Red 289 [Dye a] | 73% |
| C.I. Acid Yellow 17 [Dye c] | 93% |
| C.I. Acid Yellow 23 [Dye b] | 87% |
| C.I. Direct Yellow 86 [Dye d] | 86% |

Now from value to compound:

| Light Fastness [OD Residual Ratio (%)] | Compound |
| --- | --- |
| 98% | CCCCN(CCCC)C(=O)C1=NN(c2ccc(S(=O)(=O)N(CCCC)CCCC)cc2)C(=O)C1N=Nc1ccc(S(=O)(=O)N(CCCC)CCCC)cc1 (centres unmarked) [Oil-Soluble Dye IB] |
| 100% | CCCCCCN(CCCCCC)S(=O)(=O)c1ccc(N=NC2C(=O)N(c3cc(Cl)c(S(=O)(=O)N(CCCCCC)CCCCCC)cc3Cl)N=C2C)cc1 (centres unmarked) [Oil-Soluble Dye IC] |
| 94% | CCCCN(CCCC)S(=O)(=O)c1cccc(N=Nc2ccc(NC(=O)Nc3ccc(N=Nc4cccc(S(=O)(=O)N(CCCC)CCCC)c4)cc3OC)c(OC)c2)c1 [Oil-Soluble Dye ID] |
| 82% | C.I. Direct Yellow 132 [Dye e] |
| 45% | C.I. Solvent Red 49 [Dye l] |

experiment: Water resistance, alkali resistance and acid resistance of dye on plain paper; format: physicochemical; parameters: key: ◯: Dye not being dissolved; x: Dye being dissolved; settings: dyed plain paper immersed in 1 N aqueous hydrochloric acid for 10 minutes
Method: A. Water Resistance, Alkali Resistance and Acid Resistance
In 10 ml of tetrahydrofuran was dissolved 0.1 g of a dye. A paper sheet for plain paper copy [commercially available from XEROX CO., LTD. under the trade name of XEROX 4024] was immersed in the solution for 10 minutes, and thereafter taken out therefrom to be air-dried at 25° C. for 24 hours. After drying, the paper was immersed in water (water resistance), a 1 N-aqueous sodium bydroxide (alkali resistance), or a 1 N-aqueous hydrochloric acid (acid resistance) for 10 minutes to examine whether or not the dye is dissolved in each solvent. The evaluation was made on the basis of the following evaluation criteria:
◯: Dye not being dissolved

| Acid Resistance | Compound |
| --- | --- |
| ◯ | C.I. Solvent Red 49 [Dye l] |

same assay, conditions: dyed plain paper immersed in 1 N aqueous sodium hydroxide for 10 minutes

| Alkali Resistance | Compound |
| --- | --- |
| ◯ | C.I. Solvent Red 49 [Dye l] |

same assay, conditions: dyed plain paper immersed in water for 10 minutes

| Water Resistance | Compound |
| --- | --- |
| ◯ | C.I. Solvent Red 49 [Dye l] |

experiment: Water resistance of printed matter (OD residual ratio); format: physicochemical; settings: ink containing the dye; printed matter soaked in purified water at 25° C. for 10 minutes
Excerpt: as §1, §2
(2) Water Resistance
The printed matter on a paper sheet for plain paper copy was soaked in purified water at 25° C. for 10 minutes, and thereafter water was sufficiently removed to be air-dried. The optical density (hereinafter referred to as OD) of the same site before and after soaking was determined by using an optical density analyzer [commercially available from Macbeth Process Measurements Co., umder the trade name of reflection densitometer RD-914]. Its OD residual ratio was obtained in accordance with the following equation: [formula]

| Compound | Water Resistance [OD Residual Ratio (%)] |
| --- | --- |
| C.I. Acid Red 289 [Dye a] | 84% |
| C.I. Acid Yellow 17 [Dye c] | 42% |
| C.I. Acid Yellow 23 [Dye b] | 40% |
| C.I. Direct Yellow 86 [Dye d] | 56% |

The next lines start with the values.

| Water Resistance [OD Residual Ratio (%)] | Compound |
| --- | --- |
| 100% | CCCCN(CCCC)C(=O)C1=NN(c2ccc(S(=O)(=O)N(CCCC)CCCC)cc2)C(=O)C1N=Nc1ccc(S(=O)(=O)N(CCCC)CCCC)cc1 (centres unmarked) [Oil-Soluble Dye IB] |
| 100% | CCCCCCN(CCCCCC)S(=O)(=O)c1ccc(N=NC2C(=O)N(c3cc(Cl)c(S(=O)(=O)N(CCCCCC)CCCCCC)cc3Cl)N=C2C)cc1 (centres unmarked) [Oil-Soluble Dye IC] |
| 100% | CCCCN(CCCC)S(=O)(=O)c1cccc(N=Nc2ccc(NC(=O)Nc3ccc(N=Nc4cccc(S(=O)(=O)N(CCCC)CCCC)c4)cc3OC)c(OC)c2)c1 [Oil-Soluble Dye ID] |
| 35% | C.I. Direct Yellow 132 [Dye e] |
| 100% | C.I. Solvent Red 49 [Dye l] |

experiment: Storage stability of ink (retention ratio of physical properties); format: physicochemical; settings: ink containing the dye, stored at 60° C. for 3 months
Method: In 10 g of toluene was dissolved 0.6 g of each dye obtained in Preparation Examples 1 to 5 or Reference Example 6 or 7, and 1.4 g of the vinyl polymer solution obtained in the above item (1) was added to the resulting mixed solution, and the mixture was sufficiently stirred to dissolve the dye.
Next, 5.21 g of a 1 N aqueous potassium hydroxide and 50 g of purified water were added to the resulting solution, and the mixture was further sufficiently stirred. After stirring, the mixture was emulsified with an ultrasonic homogenizer at 400 μA for 20 minutes. Thereafter, toluene was removed with heating under reduced pressure, and the resulting mixture was filtered with a 0.8 μm filter, to give a coloring material-containing emulsion in which the dye was contained in the vinyl polymer.
as §1
A. Storage Stability of Ink
A 100 mL bottle made of a fluorocarbon resin was charged with an ink, and the bottle was stored in the air at 60° C. for 3 months. As the physical properties, particle sizes before and after storage (determined by a particle size distribution analyzer commercially available from OtsuKa Denshi K.K. under the trade name of ELS-8000), viscosity (determined at 25° C. by a viscometer commercially available from Toki Sangyo K.K. under the trade name of VISCOMETER ELS-80L) and surface tension (determined at 25° C. by a surface tension meter commercially available from Kyowa Kaimen Kagaku K.K. under the trade name of AUTOMATIC Surface Tensiometer CBVP-Z) were examined. The retention ratio in each physical property was obtained in accordance with the following equation: [formula]

| Retention Ratio of Physical Properties After Storage (%) Particle Size | Compound |
| --- | --- |
| 98.4% | CCCCN(CCCC)C(=O)C1=NN(c2ccc(S(=O)(=O)N(CCCC)CCCC)cc2)C(=O)C1N=Nc1ccc(S(=O)(=O)N(CCCC)CCCC)cc1 (centres unmarked) [Oil-Soluble Dye IB] |
| 99.4% | CCCCCCN(CCCCCC)S(=O)(=O)c1ccc(N=NC2C(=O)N(c3cc(Cl)c(S(=O)(=O)N(CCCCCC)CCCCCC)cc3Cl)N=C2C)cc1 (centres unmarked) [Oil-Soluble Dye IC] |
| 101.3% | CCCCN(CCCC)S(=O)(=O)c1cccc(N=Nc2ccc(NC(=O)Nc3ccc(N=Nc4cccc(S(=O)(=O)N(CCCC)CCCC)c4)cc3OC)c(OC)c2)c1 [Oil-Soluble Dye ID] |
| 93% | C.I. Solvent Red 49 [Dye l] |

same assay, conditions: ink containing the dye, stored at 60° C. for 3 months; surface tension at 25° C.

| Compound | Retention Ratio of Physical Properties After Storage (%) Surface Tension |
| --- | --- |
| C.I. Acid Red 289 [Dye a] | 99.7% |
| C.I. Acid Yellow 17 [Dye c] | 98.6% |
| C.I. Acid Yellow 23 [Dye b] | 96.6% |
| C.I. Direct Yellow 86 [Dye d] | 93.9% |

Continued, values first:

| Retention Ratio of Physical Properties After Storage (%) Surface Tension | Compound |
| --- | --- |
| 97.3% | CCCCN(CCCC)C(=O)C1=NN(c2ccc(S(=O)(=O)N(CCCC)CCCC)cc2)C(=O)C1N=Nc1ccc(S(=O)(=O)N(CCCC)CCCC)cc1 (centres unmarked) [Oil-Soluble Dye IB] |
| 98.5% | CCCCCCN(CCCCCC)S(=O)(=O)c1ccc(N=NC2C(=O)N(c3cc(Cl)c(S(=O)(=O)N(CCCCCC)CCCCCC)cc3Cl)N=C2C)cc1 (centres unmarked) [Oil-Soluble Dye IC] |
| 97.0% | CCCCN(CCCC)S(=O)(=O)c1cccc(N=Nc2ccc(NC(=O)Nc3ccc(N=Nc4cccc(S(=O)(=O)N(CCCC)CCCC)c4)cc3OC)c(OC)c2)c1 [Oil-Soluble Dye ID] |
| 101.2% | C.I. Direct Yellow 132 [Dye e] |
| 97.9% | C.I. Solvent Red 49 [Dye l] |

same assay, conditions: ink containing the dye, stored at 60° C. for 3 months; viscosity at 25° C.

| Compound | Retention Ratio of Physical Properties After Storage (%) Viscosity |
| --- | --- |
| C.I. Acid Red 289 [Dye a] | 105% |
| C.I. Acid Yellow 17 [Dye c] | 105% |
| C.I. Acid Yellow 23 [Dye b] | 96% |
| C.I. Direct Yellow 86 [Dye d] | 92% |

Next, values leading:

| Retention Ratio of Physical Properties After Storage (%) Viscosity | Compound |
| --- | --- |
| 95% | CCCCN(CCCC)C(=O)C1=NN(c2ccc(S(=O)(=O)N(CCCC)CCCC)cc2)C(=O)C1N=Nc1ccc(S(=O)(=O)N(CCCC)CCCC)cc1 (centres unmarked) [Oil-Soluble Dye IB] |
| 100% | CCCCCCN(CCCCCC)S(=O)(=O)c1ccc(N=NC2C(=O)N(c3cc(Cl)c(S(=O)(=O)N(CCCCCC)CCCCCC)cc3Cl)N=C2C)cc1 (centres unmarked) [Oil-Soluble Dye IC] |
| 96% | CCCCN(CCCC)S(=O)(=O)c1cccc(N=Nc2ccc(NC(=O)Nc3ccc(N=Nc4cccc(S(=O)(=O)N(CCCC)CCCC)c4)cc3OC)c(OC)c2)c1 [Oil-Soluble Dye ID] |
| 105% | C.I. Direct Yellow 132 [Dye e] |
| 91% | C.I. Solvent Red 49 [Dye l] |

Reference: patent publication US6730780B2, “Water-based ink” (Kao Corporation, priority 2000, dated 2004)
